# Experimental data as given in US20020137929A1, “1 - (3-heterocyclylphenyl) isothiourea, -isourea, -guanidine and -amidine herbicidal agents” (Intellectual Property Department, BASF Aktiengesellschaft, priority 1998, published 2002).
# Columns and labels:
# CYPIR (Rice Flatsedge) = experiment: Preemergence weed control under flooded paddy conditions; format: in vivo, Cyperus iria; conditions: rated 3-4 weeks after treatment
# In short: (§1)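 Seeds or propagules sown in top 0.5 cm of silt loam soil, flooded 1.5 to 3 cm above surface throughout. Compound in 50/50 v/v aqueous/acetone pipetted into flood water at about 0.0313 to 0.500 kg/ha. Visual 0-9 rating versus control after three to four weeks in greenhouse.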
# [1] = tested on: ECHORC (Watergrass (Calif.)); experiment: as above; format: in vivo, Echinochloa oryzoides; conditions: rated 3-4 weeks after treatment
# In short: as §1
# [2] = tested on: IPOHE (Morningglory, Ivyleaf); experiment: Postemergence herbicidal evaluation; format: in vivo, Ipomoea hederacea; conditions: postemergence
# In short: (§2)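 First, seedlings were raised for around two weeks. Next, test material in 50/50 acetone/water containing 0.5% TWEEN 20 was sprayed through a nozzle at 40 psi, equivalent to about 0.0156–0.500 kg/ha. Finally, after 4–5 weeks in the greenhouse, plants were rated 0–9.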
# ECHCG (Barnyardgrass) = experiment: Preemergence herbicidal evaluation; format: in vivo, Echinochloa crus-galli; conditions: rated 4-5 weeks after treatment
# In short: (§3)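 Scores (0–9) reflect visual comparison with control plants for stand, vigor, malformation, size and chlorosis. Compound was applied to the soil after sowing, before emergence, as an aqueous acetone spray (about 0.0156–0.500 kg/ha), and cups were kept in a greenhouse for 4–5 weeks.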
# SETVI (Foxtail, Green) [3] = experiment: Postemergence herbicidal evaluation; format: in vivo, Setaria viridis; conditions: postemergence
# In short: as §2
# GALAP (Galium) = experiment: Postemergence herbicidal evaluation; format: in vivo, Galium aparine; conditions: postemergence
# In short: as §2
# SETVI (Foxtail, Green) [4] = experiment: Preemergence herbicidal evaluation; format: in vivo, Setaria viridis; conditions: rated 4-5 weeks after treatment
# In short: as §3
# [5] = tested on: IPOHE (Morningglory, Ivyleaf); experiment: Preemergence herbicidal evaluation; format: in vivo, Ipomoea hederacea; conditions: rated 4-5 weeks after treatment
# In short: as §3
# MOOVA (Monochoria) = experiment: Preemergence weed control under flooded paddy conditions; format: in vivo, Monochoria vaginalis; conditions: rated 3-4 weeks after treatment
# In short: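 Flooded-pot preemergence screen with silt loam and seeds in the upper 0.5 cm. Dose about 0.0313 to 0.500 kg/ha, delivered into flood water; visual 0-9 score after 3 to 4 weeks.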
# ZEAMX (Corn, Field) = experiment: Preemergence herbicidal evaluation; format: in vivo, Zea mays; conditions: rated 4-5 weeks after treatment
# In short: as §3
# [6] = tested on: TRZAWR (Wheat, Winter, cv Riband); experiment: Postemergence herbicidal evaluation; format: in vivo, Triticum aestivum; conditions: postemergence
# In short: as §2
# ABUTH (Velvetleaf) = experiment: Preemergence herbicidal evaluation; format: in vivo, Abutilon theophrasti; conditions: rated 4-5 weeks after treatment
# In short: as §3
# [7] = rate 0.0156 kg/ha, rating scale 0-9
# [8] = rate 0.0313 kg/ha, rating scale 0-9
# [9] = rate 0.0625 kg/ha, rating scale 0-9
# [10] = rate 0.1250 kg/ha, rating scale 0-9
# [11] = rate 0.2500 kg/ha, rating scale 0-9
compound,measurement,setting,value
"CN1C(=O)C(CC(=O)NO)SC1=Nc1cc(-n2c(=O)cc(C(F)(F)F)n(C)c2=O)c(F)cc1Cl (centres unmarked) [Compound 162, 2-{{2-Chloro-5-[3,6-dihydro-3-methyl-2,6-dioxo-4-(trifluoromethyl)-1(2H)-pyrimidinyl]-4-fluorophenyl}imino}-3-methyl-4-oxo-5-thiazolidineacetohydroxamic acid]","herbicidal effect rating, CYPIR",CYPIR (Rice Flatsedge); 0.0313 kg/ha,5.0
same,"herbicidal effect rating, CYPIR",CYPIR (Rice Flatsedge); 0.0625 kg/ha,6.0
same,"herbicidal effect rating, CYPIR",CYPIR (Rice Flatsedge); 0.1250 kg/ha,6.0
same,"herbicidal effect rating, CYPIR",CYPIR (Rice Flatsedge); 0.2500 kg/ha,9.0
same,"herbicidal effect rating, ECHORC",[1]; 0.0313 kg/ha,6.0
same,"herbicidal effect rating, ECHORC",[1]; 0.0625 kg/ha,7.0
same,"herbicidal effect rating, ECHORC",[1]; 0.1250 kg/ha,8.0
same,"herbicidal effect rating, ECHORC",[1]; 0.2500 kg/ha,8.0
same,herbicidal rating IPOHE,[2]; rate 0.0156 kg/ha,9.0
same,herbicidal rating IPOHE,[2]; rate 0.0313 kg/ha,9.0
same,herbicidal rating IPOHE,[2]; rate 0.0625 kg/ha,9.0
same,Preemergence herbicidal rating ECHCG,ECHCG (Barnyardgrass); 0.0156 kg/ha,1.0
same,Preemergence herbicidal rating ECHCG,ECHCG (Barnyardgrass); 0.0313 kg/ha,4.0
same,Preemergence herbicidal rating ECHCG,ECHCG (Barnyardgrass); 0.0625 kg/ha,8.0
same,Preemergence herbicidal rating ECHCG,ECHCG (Barnyardgrass); 0.1250 kg/ha,9.0
same,Preemergence herbicidal rating ECHCG,ECHCG (Barnyardgrass); 0.2500 kg/ha,9.0
same,herbicidal rating SETVI,"SETVI (Foxtail, Green) [3]; rate 0.0156 kg/ha",0.0
same,herbicidal rating SETVI,"SETVI (Foxtail, Green) [3]; rate 0.0313 kg/ha",3.0
same,herbicidal rating SETVI,"SETVI (Foxtail, Green) [3]; rate 0.0625 kg/ha",4.0
same,herbicidal rating GALAP,GALAP (Galium); rate 0.0156 kg/ha,0.0
same,herbicidal rating GALAP,GALAP (Galium); rate 0.0313 kg/ha,3.0
same,herbicidal rating GALAP,GALAP (Galium); rate 0.0625 kg/ha,6.0
same,Preemergence herbicidal rating SETVI,"SETVI (Foxtail, Green) [4]; 0.0156 kg/ha",9.0
same,Preemergence herbicidal rating SETVI,"SETVI (Foxtail, Green) [4]; 0.0313 kg/ha",9.0
same,Preemergence herbicidal rating SETVI,"SETVI (Foxtail, Green) [4]; 0.0625 kg/ha",9.0
same,Preemergence herbicidal rating SETVI,"SETVI (Foxtail, Green) [4]; 0.1250 kg/ha",9.0
same,Preemergence herbicidal rating SETVI,"SETVI (Foxtail, Green) [4]; 0.2500 kg/ha",9.0
same,Preemergence herbicidal rating IPOHE,[5]; 0.0156 kg/ha,0.0
same,Preemergence herbicidal rating IPOHE,[5]; 0.0313 kg/ha,0.0
same,Preemergence herbicidal rating IPOHE,[5]; 0.0625 kg/ha,4.0
same,Preemergence herbicidal rating IPOHE,[5]; 0.1250 kg/ha,9.0
same,Preemergence herbicidal rating IPOHE,[5]; 0.2500 kg/ha,9.0
same,"herbicidal effect rating, MOOVA",MOOVA (Monochoria); 0.0313 kg/ha,7.0
same,"herbicidal effect rating, MOOVA",MOOVA (Monochoria); 0.0625 kg/ha,7.0
same,"herbicidal effect rating, MOOVA",MOOVA (Monochoria); 0.1250 kg/ha,7.0
same,"herbicidal effect rating, MOOVA",MOOVA (Monochoria); 0.2500 kg/ha,9.0
same,Preemergence herbicidal rating ZEAMX,"ZEAMX (Corn, Field); 0.0156 kg/ha",6.0
same,Preemergence herbicidal rating ZEAMX,"ZEAMX (Corn, Field); 0.0313 kg/ha",7.0
same,Preemergence herbicidal rating ZEAMX,"ZEAMX (Corn, Field); 0.0625 kg/ha",9.0
same,Preemergence herbicidal rating ZEAMX,"ZEAMX (Corn, Field); 0.1250 kg/ha",9.0
same,Preemergence herbicidal rating ZEAMX,"ZEAMX (Corn, Field); 0.2500 kg/ha",9.0
same,herbicidal rating TRZAWR,[6]; rate 0.0156 kg/ha,3.5
same,herbicidal rating TRZAWR,[6]; rate 0.0313 kg/ha,3.5
same,herbicidal rating TRZAWR,[6]; rate 0.0625 kg/ha,3.5
same,Preemergence herbicidal rating ABUTH,ABUTH (Velvetleaf); 0.0156 kg/ha,9.0
same,Preemergence herbicidal rating ABUTH,ABUTH (Velvetleaf); 0.0313 kg/ha,9.0
same,Preemergence herbicidal rating ABUTH,ABUTH (Velvetleaf); 0.0625 kg/ha,9.0
same,Preemergence herbicidal rating ABUTH,ABUTH (Velvetleaf); 0.1250 kg/ha,9.0
same,Preemergence herbicidal rating ABUTH,ABUTH (Velvetleaf); 0.2500 kg/ha,9.0
"Cn1c(C(F)(F)F)cc(=O)n(-c2cc(N=C3SCC(=O)N3Cc3ccc(S(N)(=O)=O)cc3)c(Cl)cc2F)c1=O [Compound 135, Alpha-{2-{{2-chloro-5-[3,6-dihydro-3-methyl-2,6-dioxo-4-(trifluoromethyl)-1(2H)-pyrimidinyl]-4-fluorophenyl}imino}-4-oxo-3-thiazolidinyl}-p-toluenesulfonamide]","herbicidal effect rating, CYPIR",CYPIR (Rice Flatsedge); 0.0313 kg/ha,5.0
same,"herbicidal effect rating, CYPIR",CYPIR (Rice Flatsedge); 0.0625 kg/ha,6.0
same,"herbicidal effect rating, CYPIR",CYPIR (Rice Flatsedge); 0.1250 kg/ha,7.0
same,"herbicidal effect rating, CYPIR",CYPIR (Rice Flatsedge); 0.2500 kg/ha,7.0
same,"herbicidal effect rating, ECHORC",[1]; 0.0313 kg/ha,7.0
same,"herbicidal effect rating, ECHORC",[1]; 0.0625 kg/ha,7.0
same,"herbicidal effect rating, ECHORC",[1]; 0.1250 kg/ha,7.0
same,"herbicidal effect rating, ECHORC",[1]; 0.2500 kg/ha,9.0
same,herbicidal rating IPOHE,[2]; rate 0.0156 kg/ha,9.0
same,herbicidal rating IPOHE,[2]; rate 0.0313 kg/ha,9.0
same,herbicidal rating IPOHE,[2]; rate 0.0625 kg/ha,9.0
same,Preemergence herbicidal rating ECHCG,ECHCG (Barnyardgrass); [7],0.0
same,Preemergence herbicidal rating ECHCG,ECHCG (Barnyardgrass); [8],0.0
same,Preemergence herbicidal rating ECHCG,ECHCG (Barnyardgrass); [9],0.0
same,Preemergence herbicidal rating ECHCG,ECHCG (Barnyardgrass); [10],0.0
same,Preemergence herbicidal rating ECHCG,ECHCG (Barnyardgrass); [11],1.0
same,herbicidal rating SETVI,"SETVI (Foxtail, Green) [3]; rate 0.0156 kg/ha",2.0
same,herbicidal rating SETVI,"SETVI (Foxtail, Green) [3]; rate 0.0313 kg/ha",4.0
same,herbicidal rating SETVI,"SETVI (Foxtail, Green) [3]; rate 0.0625 kg/ha",6.0
same,herbicidal rating GALAP,GALAP (Galium); rate 0.0156 kg/ha,1.0
same,herbicidal rating GALAP,GALAP (Galium); rate 0.0313 kg/ha,3.0
same,herbicidal rating GALAP,GALAP (Galium); rate 0.0625 kg/ha,4.0
same,Preemergence herbicidal rating SETVI,"SETVI (Foxtail, Green) [4]; [7]",0.0
same,Preemergence herbicidal rating SETVI,"SETVI (Foxtail, Green) [4]; [8]",0.0
same,Preemergence herbicidal rating SETVI,"SETVI (Foxtail, Green) [4]; [9]",2.0
same,Preemergence herbicidal rating SETVI,"SETVI (Foxtail, Green) [4]; [10]",4.0
same,Preemergence herbicidal rating SETVI,"SETVI (Foxtail, Green) [4]; [11]",7.0
same,Preemergence herbicidal rating IPOHE,[5]; [7],0.0
same,Preemergence herbicidal rating IPOHE,[5]; [8],0.0
same,Preemergence herbicidal rating IPOHE,[5]; [9],1.0
same,Preemergence herbicidal rating IPOHE,[5]; [10],9.0
same,Preemergence herbicidal rating IPOHE,[5]; [11],9.0
same,"herbicidal effect rating, MOOVA",MOOVA (Monochoria); 0.0313 kg/ha,6.0
same,"herbicidal effect rating, MOOVA",MOOVA (Monochoria); 0.0625 kg/ha,9.0
same,"herbicidal effect rating, MOOVA",MOOVA (Monochoria); 0.1250 kg/ha,9.0
same,"herbicidal effect rating, MOOVA",MOOVA (Monochoria); 0.2500 kg/ha,8.0
same,Preemergence herbicidal rating ZEAMX,"ZEAMX (Corn, Field); [7]",1.0
same,Preemergence herbicidal rating ZEAMX,"ZEAMX (Corn, Field); [8]",1.0
same,Preemergence herbicidal rating ZEAMX,"ZEAMX (Corn, Field); [9]",0.0
same,Preemergence herbicidal rating ZEAMX,"ZEAMX (Corn, Field); [10]",2.0
same,Preemergence herbicidal rating ZEAMX,"ZEAMX (Corn, Field); [11]",1.0
same,herbicidal rating TRZAWR,[6]; rate 0.0156 kg/ha,2.5
same,herbicidal rating TRZAWR,[6]; rate 0.0313 kg/ha,2.5
same,herbicidal rating TRZAWR,[6]; rate 0.0625 kg/ha,3.0
same,Preemergence herbicidal rating ABUTH,ABUTH (Velvetleaf); [7],0.0
same,Preemergence herbicidal rating ABUTH,ABUTH (Velvetleaf); [8],0.0
same,Preemergence herbicidal rating ABUTH,ABUTH (Velvetleaf); [9],3.0
same,Preemergence herbicidal rating ABUTH,ABUTH (Velvetleaf); [10],6.0
same,Preemergence herbicidal rating ABUTH,ABUTH (Velvetleaf); [11],8.0
